Consider two compounds from ChEMBL document CHEMBL5241075, “Advancement of chimeric hybrid drugs to cure malaria infection: An overview with special emphasis on endoperoxide pharmacophores” (Eur J Med Chem, 2021).

Some results are limits rather than exact numbers.

Experiment [1] deals with Plasmodium falciparum. In words: Antimalarial activity against erythrocytic stage chloroquine sensitive Plasmodium falciparum W2 infected in mouse assessed as reduction in parasitemia at 54 mg/kg/day, po qd measured after 4 days by Giemsa staining based analysis relative to control. It counts as functional. Also on record: scale not given: the % may be the effect or the level left. To be noted: time 4 day.

Experiment [2] deals with Plasmodium falciparum. In words: Antimalarial activity against erythrocytic stage chloroquine sensitive Plasmodium falciparum W2 infected in mouse assessed as reduction in parasitemia at 4 mg/kg/day, po qd measured after 4 days by Giemsa staining based analysis relative to control. It counts as functional. Also on record: scale not given: the % may be the effect or the level left. To be noted: time 4 day.

Experiment [3] relates to Plasmodium falciparum. Nature of the experiment: Antiplasmodial activity against chloroquine resistant Plasmodium falciparum by HRP2 ELISA analysis. The experiment is classed as functional, organism-based. On the technique in general: In an ELISA, binding on a coated surface is turned into a signal by an enzyme label.
Experiment [4] deals with Plasmodium vinckei petteri. In words: Antimalarial activity against chloroquine sensitive Plasmodium vinckei petteri infected in po dosed swiss mouse assessed as reduction in parasitemia. It counts as functional.
In experiment [5] the test system is Plasmodium falciparum. Nature of the experiment: Antiplasmodial activity against Plasmodium falciparum NF54. It counts as functional, organism-based.
The test system of experiment [6] is Plasmodium falciparum. Nature of the experiment: Antiplasmodial activity against Plasmodium falciparum gametocytes assessed as inhibition of gametocyte activation by [3H]hypoxanthine incorporation assay. It counts as functional, organism-based.
The subject of experiment [7] is Plasmodium falciparum. Nature of the experiment: Antimalarial activity against erythrocytic stage chloroquine sensitive Plasmodium falciparum 3D7 infected in mouse assessed as reduction in parasitemia at 4 mg/kg/day, po qd measured after 4 days by Giemsa staining based analysis relative to control. It counts as functional. Also on record: scale not given: the % may be the effect or the level left. As to conditions: time 4 day.

A further experiment has as its system Plasmodium vinckei. In words: Antimalarial activity against chloroquine resistant Plasmodium vinckei infected in po dosed swiss mouse assessed as reduction in parasitemia. It counts as functional.
A short description of experiment [8]: Inhibition of Plasmodium falciparum falcipain-2.
The subject of experiment [9] is Plasmodium falciparum. In words: Antiplasmodial activity against Plasmodium falciparum W2. It counts as functional, organism-based.
The test system of experiment [10] is Plasmodium falciparum. Nature of the experiment: Antiplasmodial activity against Plasmodium falciparum 3D7. The experiment is classed as functional, organism-based.

The term IC50 denotes the point on the concentration scale where inhibition reaches its midpoint. For orientation: IC90 means the concentration at which the effect reaches the 90% level. The term IC99 denotes the concentration at which the effect reaches the 99% level. On to `C[C@H]1[C@H](OC(=O)CCC(=O)O)O[C@@H]2O[C@@]3(C)CC[C@H]4[C@H](C)CC[C@@H]1[C@@]24OO3` [ARTESUNATE], for which the figures for the Activity in the experiment with Plasmodium falciparum [1], in the experiment on Plasmodium falciparum [2] and in the experiment with Plasmodium falciparum [7] were 100%, 89% and 28%, respectively. In addition, the results for the IC50 with Plasmodium falciparum [3], with Plasmodium falciparum [5] and in the experiment with Plasmodium falciparum [6] were 2.34 nM, below 5.2 nM and 300000 nM, respectively. This compound also gave an IC90 in the experiment with Plasmodium falciparum [3] of 6.46 nM. Also, it took 0.0195 µM to reach the 99% level in the experiment on Plasmodium falciparum [3] (IC99). In addition, the ED100 in [4] is recorded as 32 mg/kg/day; with Plasmodium vinckei, 100 mg/kg/day.
Regarding `CC(C)CN(NC(=O)C1CCC2(CC1)OOC1(OO2)C2CC3CC(C2)CC1C3)c1nc(C#N)ncc1Cl` (stereo not drawn), the IC50 in [8] worked out at 3.4 nM; in the experiment with Plasmodium falciparum [9] it was 9.8 nM; in the experiment with Plasmodium falciparum [10] it was 9.8 nM.
